Results: patent US11806346B2, “HTT modulators for treating Huntington's disease” (CHDI Foundation, Inc., priority 2020, dated 2023)
Like-named read-outs stand apart in the source and are kept apart here.

System: tHTT (total HTT protein)
Assay: Time-resolved FRET assay, total huntingtin (tHTT) detection in cell lysates
Assay type: cell-based, human
In short: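 TR-FRET readout on cell lysates, with the donor/acceptor ratio reflecting relative total HTT.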

[1] = GEN020 hESCs (mutant 48 Q repeat allele), compounds added for 48 hours, TR-FRET on lysate; read-out: tHTT EC50
[2] = Comparator (Comparative Examples 145-147, within scope of WO 2015/197503); GEN020 hESCs, 48 hours; read-out: tHTT EC50
[3] = read-out: tHTT EC50; GEN020 hESCs (mutant 48 Q repeat allele), compounds added for 48 hours, TR-FRET on lysate

Structure (SMILES)	EC50 [1]	also measured
COc1nc(N2CCNCC2)ccc1C(=O)Nc1cc(F)c2nc(C)cn2c1 [reference compound]	–	EC50 [2]: 15200 nM
Cc1cn2cc(NC(=O)c3cnc(N4CCC(NC(C)C)C4)cn3)nc(C)c2n1 (centres unmarked) [Example 55]	500 to 1000 nM	–
Cn1cc2cc(NC(=O)c3cnc(N4CC(CNCC(F)F)C4)cn3)cc(F)c2n1 [Example 323, 5-(3-(((2,2-difluoroethyl)amino)methyl)azetidin-1-yl)-N-(7-fluoro-2-methyl-2H-indazol-5-yl)pyrazine-2-carboxamide]	–	EC50 [3]: 500 to 1000 nM
Cc1cn2cc(NC(=O)c3cnc(N4CC(C(C)NC5CC5)C4)cn3)nc(C)c2n1 (centres unmarked) [Example 203]	500 to 1000 nM	–
Cc1cn2cc(NC(=O)c3cnc(N4CCC(NC5CC5)CC4)cn3)cc(F)c2n1 [Example 51]	500 to 1000 nM	–
COc1cc2nn(C)cc2cc1NC(=O)c1cnc(N2CC3(CCC3NC3CC3)C2)cn1 (single isomer, unassigned) [Example 373]	1000 to 10000 nM	–
Cc1cn2cc(NC(=O)c3cnc(N4CCC5(CC4)CN(C)C5)cn3)cc(F)c2n1 [Example 8]	1000 to 10000 nM	–
Cc1cn2cc(NC(=O)c3cnc(N4CCC(NC5CC5)C4)nc3)nc(C)c2n1 (single isomer, unassigned) [Example 329]	500 to 1000 nM	–
Cc1cn2cc(NC(=O)c3cnc(N4CCC5(CCCN5C)C4)cn3)cc(F)c2n1 (centres unmarked) [Example 9]	1000 to 10000 nM	–
Cc1cn2cc(NC(=O)c3cnc(N4CC[C@@H](NC5CC5)C4)cn3)cc(C)c2n1 [Example 181, (R)-5-(3-(cyclopropylamino)pyrrolidin-1-yl)-N-(2,8-dimethylimidazo[1,2-a]pyridin-6-yl)pyrazine-2-carboxamide]	–	EC50 [3]: 100 to 500 nM
Cc1cn2cc(NC(=O)c3cnc(N(C)C4CCNC5(CC5)C4)cn3)cc(F)c2n1 (single isomer, unassigned) [Example 318]	100 to 500 nM	–
COc1nc(N2CCNCC2)ccc1C(=O)Nc1cn2cc(C)nc2c(C)n1 [reference compound]	–	EC50 [2]: 30000 nM
Cc1cn2cc(NC(=O)c3cnc(N4CCN[C@H](C)C4)cn3)cc(F)c2n1 [Example 78]	1000 to 10000 nM	–
CNC1CN(c2cnc(C(=O)Nc3cn4cc(C)nc4c(C)n3)cn2)CC1F (centres unmarked) [Example 89]	1000 to 10000 nM	–
Cc1cn2cc(NC(=O)c3cnc(N4C[C@@H](C)NC[C@H]4C)cn3)cc(F)c2n1 [Example 6]	1000 to 10000 nM	–
Cc1cn2cc(NC(=O)c3cnc(N4C[C@@H](N)C5(CC5)C4)cn3)cc(F)c2n1 [Example 371, (S)-5-(7-amino-5-azaspiro[2.4]heptan-5-yl)-N-(8-fluoro-2-methylimidazo[1,2-a]pyridin-6-yl)pyrazine-2-carboxamide]	500 to 1000 nM	–
CNC1CN(c2cnc(C(=O)Nc3cn4cc(C)nc4c(C)n3)cn2)CC1F (single isomer, unassigned) [Example 87]	500 to 1000 nM	–
Cc1cn2cc(NC(=O)c3cnc(N4CC(C(C)NC5CC5)C4)cn3)nc(C)c2n1 (centres unmarked) [Example 204]	100 to 500 nM	–
COc1nc(NC(=O)c2cnc(N3CC(C(C)NC4CC4)C3)cn2)cn2cc(C)nc12 (centres unmarked) [Example 196]	100 to 500 nM	–
COc1nc(NC(=O)c2cnc(N3CC(CNCCC(F)(F)F)C3)cn2)cn2cc(C)nc12 [Example 197]	100 to 500 nM	–
Cc1cn2cc(NC(=O)c3cnc(N4CC5CNCC5C4=O)cn3)cc(F)c2n1 (single isomer, unassigned) [Example 293]	500 to 1000 nM	–
COc1cc2nn(C)cc2cc1NC(=O)c1cnc(N2CC[C@@H](CNC3CC3)C2)cn1 [Example 351, (S)-5-(3-((cyclopropylamino)methyl)pyrrolidin-1-yl)-N-(6-methoxy-2-methyl-2H-indazol-5-yl)pyrazine-2-carboxamide]	100 to 500 nM	–
Cc1cn2cc(NC(=O)c3cnc(N4CC[C@@H](NCC(F)(F)F)C4)cn3)cc(F)c2n1 [Example 117, (R)—N-(8-fluoro-2-methylimidazo[1,2-a]pyridin-6-yl)-5-(3-((2,2,2-trifluoroethyl)amino)pyrrolidin-1-yl)pyrazine-2-carboxamide]	1000 to 10000 nM	–
Cc1cn2cc(NC(=O)c3cnc(N4CCC(F)(CNC5CC5)C4)cn3)nc(C)c2n1 (centres unmarked) [Example 250, 5-(3-((cyclopropylamino)methyl)-3-fluoropyrrolidin-1-yl)-N-(2,8-dimethylimidazo[1,2-a]pyrazin-6-yl)pyrazine-2-carboxamide]	500 to 1000 nM	–
Cc1cn2cc(NC(=O)c3cnc(N4CCNCC4)cn3)nc(C)c2n1 [drawing 1142]	–	EC50 (Example (compounds of the instant disclosure); GEN020 hESCs, 48 hours; read-out: tHTT EC50): 1700 nM
CCOc1cc2nn(C)cc2cc1NC(=O)c1cnc(N2CC[C@@H](NC)C2)cn1 [Example 108, (R)—N-(6-ethoxy-2-methyl-2H-indazol-5-yl)-5-(3-(methylamino)pyrrolidin-1-yl)pyrazine-2-carboxamide]	100 to 500 nM	–
COc1nc(NC(=O)c2cnc(N3CCC(NC4CC4)C3)cn2)cn2cc(C)nc12 (centres unmarked) [Example 85]	100 to 500 nM	–

The next lines start with results.

EC50 [1]	Structure (SMILES)	also measured
100 to 500 nM	Cn1cc2cc(NC(=O)c3cnc(N4CC(CN5CC(F)C5)C4)cn3)cc(F)c2n1 [Example 350, N-(7-fluoro-2-methyl-2H-indazol-5-yl)-5-(3-((3-fluoroazetidin-1-yl)methyl)azetidin-1-yl)pyrazine-2-carboxamide]	–
100 to 500 nM	COc1nc(NC(=O)c2cnc(N3CC(C(C)NC4CC4)C3)cn2)cn2cc(C)nc12 (centres unmarked) [Example 195]	–
< 100 nM	Cc1cn2cc(NC(=O)c3cnc(N4CC5(CNC5)C4)cn3)cc(F)c2n1 [Example 35]	–
< 100 nM	Cc1cn2cc(NC(=O)c3cnc(N4CCC(CNC5CC5)C4)cn3)cc(F)c2n1 (single isomer, unassigned) [Example 12, 5-(3-((cyclopropylamino)methyl)pyrrolidin-1-yl)-N-(8-fluoro-2-methylimidazo[1,2-a]pyridin-6-yl)pyrazine-2-carboxamide]	–
< 100 nM	CN[C@@H]1CCN(c2cnc(C(=O)Nc3cn4cc(C)nc4c(C)c3F)cn2)C1 [Example 354, N-(7-fluoro-2,8-dimethyl-imidazo[1,2-a]pyridin-6-yl)-5-[(3R)-3-(methylamino)pyrrolidin-1-yl]pyrazine-2-carboxamide]	–
100 to 500 nM	Cc1cn2cc(NC(=O)c3cnc(N4CCC5(CN(C)C5)C4)cn3)cc(F)c2n1 [Example 18]	–
100 to 500 nM	COc1nc(NC(=O)c2cnc(N3CC[C@H](NCC4CC4)C3)cn2)cn2cc(C)nc12 [Example 269]	–
100 to 500 nM	Cc1cn2cc(NC(=O)c3cnc(N4CC[C@@H](CNC5CC5)C4)cn3)nc(C)c2n1 [Example 287, 5-[(3S)-3-[(cyclopropylamino)methyl]pyrrolidin-1-yl]-N-(2,8-dimethylimidazo[1,2-a]pyrazin-6-yl)pyrazine-2-carboxamide]	–
100 to 500 nM	COC1CN(CC2CN(c3cnc(C(=O)Nc4cc(F)c5nc(C)cn5c4)cn3)C2)C1 [Example 199]	–
100 to 500 nM	Cc1cn2cc(NC(=O)c3cnc(N4CCC(NC(C)C)C4)cn3)cc(F)c2n1 (centres unmarked) [Example 28]	–
< 100 nM	CN[C@@H]1CCN(c2cnc(C(=O)Nc3cc4cn(C)nc4cc3OC(F)F)cn2)C1 [Example 180]	–
< 100 nM	Cc1cn2cc(NC(=O)c3cnc(N4CCC(CNC5CC5)C4)cn3)cc(F)c2n1 (single isomer, unassigned) [Example 149]	–
100 to 500 nM	Cc1cn2cc(NC(=O)c3cnc(N4CCC(NC5CC5)C4)cn3)nc(C)c2n1 (centres unmarked) [Example 60]	–
100 to 500 nM	CNCC1CN(c2cnc(C(=O)Nc3cc(F)c4nc(C)oc4c3)cn2)C1 [Example 349, N-(4-fluoro-2-methylbenzo[d]oxazol-6-yl)-5-(3-((methylamino)methyl)azetidin-1-yl)pyrazine-2-carboxamide]	–
< 100 nM	Cc1cn2cc(NC(=O)c3cnc(N4CCC(NC(C)C)C4)cn3)cc(F)c2n1 (centres unmarked) [Example 27]	–
100 to 500 nM	Cc1cn2cc(NC(=O)c3cnc(N4CC5(CCN(C)CC5)C4)cn3)cc(F)c2n1 [Example 50]	–
100 to 500 nM	CNC1CN(c2ncc(C(=O)Nc3cc(F)c4nc(C)cn4c3)cn2)CC1F (centres unmarked) [Example 332]	–
100 to 500 nM	Cc1cn2cc(NC(=O)c3cnc(N4C[C@H](C)NC[C@H]4C)cn3)cc(F)c2n1 [Example 76]	–
< 100 nM	Cc1cn2cc(NC(=O)c3cnc(N4CCC(C5CCCN5C)C4)cn3)cc(F)c2n1 (single isomer, unassigned) [Example 236]	–
100 to 500 nM	Cc1cn2cc(NC(=O)c3cnc(N4CC[C@H](CNC5CC5)C4)cn3)nc(C)c2n1 [Example 286, (R)-5-(3-((cyclopropylamino)methyl)pyrrolidin-1-yl)-N-(2,8-dimethylimidazo[1,2-a]pyrazin-6-yl)pyrazine-2-carboxamide]	–
100 to 500 nM	Cc1cn2cc(NC(=O)c3cnc(N4CCC(NC(C)C)C4)cn3)nc(C)c2n1 (centres unmarked) [Example 56]	–
100 to 500 nM	Cc1cn2cc(NC(=O)c3cnc(N4CC5(CNC5)C4)cn3)nc(C)c2n1 [Example 58]	–
< 100 nM	Cc1cn2cc(NC(=O)c3cnc(N4CC[C@H](NCC5CC5)C4)cn3)cc(F)c2n1 [Example 268]	–
100 to 500 nM	Cc1cn2cc(NC(=O)c3cnc(N4CCC(NC(C)(C)C)C4)cn3)cc(F)c2n1 (centres unmarked) [Example 43]	–
100 to 500 nM	COc1cc(NC(=O)c2cnc(N3CC[C@@H](CNC4CC4)C3)cn2)cn2cc(C)nc12 [Example 313]	–
100 to 500 nM	COc1cn2nc(C)cc2cc1NC(=O)c1cnc(N2CC[C@@H](NC3CC3)C2)cn1 [Example 182]	–
< 100 nM	Cc1cn2cc(NC(=O)c3cnc(N4CC(CNC5CC5)C4)cn3)c(F)c(C)c2n1 [Example 355, 5-[3-[(cyclopropylamino)methyl]azetidin-1-yl]-N-(7-fluoro-2,8-dimethyl-imidazo[1,2-a]pyridin-6-yl)pyrazine-2-carboxamide]	–
100 to 500 nM	Cc1cn2cc(NC(=O)c3cnc(N4CCC(C5CCCN5)C4)cn3)cc(F)c2n1 (single isomer, unassigned) [Example 161]	–
< 100 nM	CCN[C@@H]1CCN(c2cnc(C(=O)Nc3cc4cn(C)nc4cc3OC)cn2)C1 [Example 110, (R)-5-(3-(ethylamino)pyrrolidin-1-yl)-N-(6-methoxy-2-methyl-2H-indazol-5-yl)pyrazine-2-carboxamide]	–
